Source: US20170121646A1, “Improved Stabilization of Non-Protease Enzyme” (Novozymes A/S, priority 2014, published 2017)

Key:
Format in all cases: biochemical
Lipase (Lipex 100L) [1] = experiment: Storage stability in Detergent C with Savinase, residual lipase activity after 4 weeks at 30° C.; details: increase from dose 1 to dose 2
Method: (§1) Further the following detergents with protease inhibitors were prepared. The detergents were placed in closed glasses at 30° C. Residual activity of lipase and protease was measured (by comparison to a reference stored at −18° C.) after 4 weeks, using standard enzyme analytical methods (protease measured by hydrolysis of N,N-dimethylcasein at 40° C., pH 8.3 and lipase measured by hydrolysis of p-nitrophenyl valerate at 40° C., pH 7.7). Z-GA-NHCH(CH2C6H4OH)CH(OH)SO3Na was added in a concentration of 8.1 mg/L (dose 1) and 16.1 mg/L (dose 2). 4-FPBA was added in a concentration of 80 mg/L (dose 1) and 160 mg/L (dose 2).

Savinase [2] = target: T1, Savinase (Lederbergia lenta, UniProt P29600); experiment: Storage stability in Detergent C, residual protease activity after 4 weeks at 30° C.; details: Detergent C with Savinase; for %-points per dose (residual protease activity): increase from dose 1 to dose 2
T1 sequence (P29600 1-269): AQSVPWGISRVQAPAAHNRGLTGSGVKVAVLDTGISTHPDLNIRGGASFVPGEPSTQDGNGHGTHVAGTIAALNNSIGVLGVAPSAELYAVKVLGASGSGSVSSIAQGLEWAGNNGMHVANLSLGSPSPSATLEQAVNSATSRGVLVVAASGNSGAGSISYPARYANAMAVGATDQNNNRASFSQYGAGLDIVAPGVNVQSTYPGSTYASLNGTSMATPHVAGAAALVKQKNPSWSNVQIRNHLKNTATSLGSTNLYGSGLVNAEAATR
Method: as §1

Savinase [3] = target: T1, Savinase; experiment: Storage stability in Detergent M, residual protease activity after 1 week at 40° C.; details: for Residual activity at dose 1 / Residual activity at dose 2 / Inhibitor dose 1: 1 week 40° C. vs −18° C. reference; for Inhibitor dose 1: dose 1 = concentration C found by interpolation; for ((residual activity at dose 2) − (residual activity at dose 1))/((residual activity at dose 1) − (residual activity at no inhibitor)): criterion that defines dose 1; for Inhibitor dose 2: dose 2 = 2×dose 1
Source text: An inhibitor concentration C is defined, so that when the inhibitor concentration is doubled from a concentration of C to a concentration of 2C (i.e., 2C=2×C), the residual protease activity increases (“residual protease activity at 2C”−“residual protease activity at C”) by 25% of the residual protease activity increase from no inhibitor to C (“residual protease activity at C”−“residual activity at no inhibitor”). “No inhibitor” means that the concentration of inhibitor is zero.
The test system to determine “dose 1” (C) and “dose 2” (2C) is described in Example 1. A model detergent system is used (detergent A) and protease, lipase, and different concentrations of protease inhibitor are added (detergent M). Residual protease activity is determined by comparing activity after storage for 1 week at 40° C. with 1 week at −18° C. The data are used to prepare a dose response curve which is used to identify the inhibitor concentration C.
Various peptide aldehydes were produced by a custom peptide synthesis company, all with a purity>80%. The peptide aldehydes were dissolved in DMSO to a concentration of 10 mg/mL before use.
Further the following detergents with protease inhibitors were prepared. The detergents were placed in closed glasses at 40° C. Residual activity of protease was measured (by comparison to a reference stored at −18° C.) after 1 week, using standard enzyme analytical methods (protease measured by hydrolysis of N,N-dimethylcasein at 40° C., pH 8.3). The inhibitor levels tested relative to protease were in the range 0.5-500 molar ratio (inhibitor:protease). The data points were connected and the inhibitor dose 1 and dose 2 were determined by interpolation so that ((residual protease activity at dose 2)−(residual protease activity at dose 1))/((residual protease activity at dose 1)−(residual protease activity at no inhibitor))=0.25; and dose 2=2×dose 1.

Protease (Savinase 16L) = target: T2, Protease (Savinase 16L) (Lederbergia lenta, UniProt P29600); experiment: Storage stability in Detergent B, residual protease activity after 4 weeks at 30° C.; details: increase from dose 1 (12.9 mg/L) to dose 2 (26.0 mg/L)
T2 sequence (P29600 1-269): T1 sequence (P29600 1-269)
Method: as §1, with “12.9” for “8.1”, “26.0” for “16.1”, “2).” for “2). 4-FPBA was added in a concentration of 80 mg/L (dose 1) and 160 mg/L (dose 2).”

Lipase (Lipex 100L) [4] = experiment: Storage stability in Detergent C with Liquanase, residual lipase activity after 4 weeks at 30° C.; details: increase from dose 1 to dose 2
Method: as §1
Target sequence in this assay (O59952 23-291 T253R/N255R): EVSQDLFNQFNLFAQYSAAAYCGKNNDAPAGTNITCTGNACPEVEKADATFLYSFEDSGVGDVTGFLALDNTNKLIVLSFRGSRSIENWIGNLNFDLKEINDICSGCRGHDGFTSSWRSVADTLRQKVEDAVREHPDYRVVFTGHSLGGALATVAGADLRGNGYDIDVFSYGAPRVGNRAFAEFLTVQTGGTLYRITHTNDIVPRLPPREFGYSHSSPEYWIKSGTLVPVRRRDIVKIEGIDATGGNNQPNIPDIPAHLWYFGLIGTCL

Lipase (Lipex 100L) [5] = experiment: Storage stability in Detergent B (with Savinase), residual lipase activity after 4 weeks at 30° C.; details: increase from dose 1 (12.9 mg/L) to dose 2 (26.0 mg/L)
Method: as §1, with “12.9” for “8.1”, “26.0” for “16.1”, “2).” for “2). 4-FPBA was added in a concentration of 80 mg/L (dose 1) and 160 mg/L (dose 2).”
Target sequence in this assay (O59952 23-291 T253R/N255R): as above

Liquanase = experiment: Storage stability in Detergent C, residual protease activity after 4 weeks at 30° C.; details: Detergent C with Liquanase; increase from dose 1 to dose 2
Method: as §1

Compound | %-points per dose (residual lipase activity) (Lipase (Lipex 100L) [1]) | remaining activity at 80 µg/mL (Savinase [2]; 4 weeks 30° C. vs −18° C. reference, dose 1: Z-GA-NHCH(CH2C6H4OH)CH(OH)SO3Na 8.1 mg/L, 4-FPBA 80 mg/L, read-out: Inhibitor dose 1 (residual protease activity)) | remaining activity at 160 µg/mL (Savinase [2]; 4 weeks 30° C. vs −18° C. reference, dose 2: Z-GA-NHCH(CH2C6H4OH)CH(OH)SO3Na 16.1 mg/L, 4-FPBA 160 mg/L, read-out: Inhibitor dose 2 (residual protease activity)) | %-points per dose (residual protease activity) (Savinase [2]) | Residual activity at dose 1 (Savinase [3]) | Residual activity at dose 2 (Savinase [3]) | Inhibitor dose 1 (Savinase [3]) | ((residual activity at dose 2) − (residual activity at dose 1))/((residual activity at dose 1) − (residual activity at no inhibitor)) (Savinase [3]) | Inhibitor dose 2 (Savinase [3]) | %-points per dose (residual protease activity) (Protease (Savinase 16L)) | %-points per dose (residual lipase activity) (Lipase (Lipex 100L) [4]) | %-points per dose (residual lipase activity) (Lipase (Lipex 100L) [5]) | %-points per dose (residual protease activity) (Liquanase)
O=Cc1ccc(B(O)O)cc1 [4-FPBA, 4-formyl-phenyl-boronic acid] | 16% | 98% | 98% | 0% | 63% | 75% | 91 mg/mL | 25% | 182 mg/mL | – | – | – | –
Z-GA-NHCH(CH2C6H4OH)CH(OH)SO3Na | 21% | – | – | 9% | – | – | 8.1 mg/mL | 25% | 16.1 mg/mL | 10% | 25% | 30% | 0%
Cbz-Gly-Ala-Leu-H [Z-GAL-H] | – | – | – | – | 50% | 60% | 5.7 mg/mL | 25% | 11.5 mg/mL | – | – | – | –
Cbz-Gly-Ala-Phe-H [Z-GAF-H] | – | – | – | – | 75% | 90% | 18.7 mg/mL | 25% | 37.5 mg/mL | – | – | – | –
